Data reported in PubChem BioAssay AID1963838 (Molecular Pharmacology Branch, DTP, NCI, 2024).
“And” between values parts separate entries of the source, which are not always exact repeats. Identical values can stand only once.

Test system: 855422-203-R-J1-PDC complex spheroid viability
Assay: Anticancer human tumor 855422-203-R-J1-PDC patient-derived bladder carcinoma cell line growth inhibition [POLQ]
Details: for viability, T/C: stronger effect = lower value
Method: Multicellular complex tumor spheroid response to Polymerase (POL) inhibitors (novobiocin, ART-558, RP6685) in combination with a variety of drugs and investigational agents in selected tumor cell lines
The POL inhibitors (novobiocin, ART-558, and RP6685) were evaluated both individually and in combination with standard of care and investigational anticancer small molecules within a complex spheroid model of solid tumors. . Complex spheroids include a stromal component modeled by human endothelial cells (HUVEC) and fibroblasts modeled by human mesenchymal stem cells (MSCs). The concentration ranges selected for each drug and investigational agent were based upon clinically achievable concentrations if the clinical Cmax of the agent was known.
Compounds. The drugs and investigational agents: novobiocin (NSC847541), ART-558 (NSC835418), RP-6685 (NSC848927), peposertib (NSC802822), ceralasertib (NSC780249), elimusertib (NSC800525), camonsertib (NSC841442), AZD-1390 (NSC803789), olaparib (NSC753686), talazoparib (NSC767125), rucaparib (NSC756644), sotorasib (NSC818433), MRTX-1133 (NSC836407), SN-38 (NSC673596), topotecan (NSC609699), epotoside (NSC141540), doxorubicin (NSC123127), gemcitabine (NSC613327), 5-fluorouracil (NSC19893), paclitaxel (NSC125973), vemurafenib (NSC761431), MSA-2 (NSC828583), SN-011 (NSC837082), adavosertib (NSC754352), prexasertib (NSC758257), carboplatin (NSC241240) and oxaliplatin (NSC266046), were obtained from the National Cancer Institute (NCI) Developmental Therapeutics Program Chemical Repository (21). The FDA-approved anticancer drug set is available from the Developmental Therapeutics Program at https://dtp.cancer.gov/organization/dscb/obtaining/. […] The stock solutions were prepared in dimethyl sulfoxide (DMSO, Sigma-Aldrich, St. Louis, MO, cat. D2650), except for the platinum compounds which were prepared in saline (Quality Biological, Gaithersburg, MD, cat. 114-055-101), at 800-fold the tested concentration and stored at -70 degrees C prior to their use. All drugs and investigational agents were tested over a range starting from a high concentration at or near the clinical Cmax and decreasing in half-log increments. If the clinical Cmax for an agent had not been determined, the highest concentration tested was 10 microM, except for SN-38, which was tested at a high concentration of 1 microM.
Cell Culture. All cells were maintained in an incubator at 37 degrees C and 5% CO2 with 95% humidity. The PDC lines were cultured according to standard operating procedures established by the NCI PDMR (https://pdmr.cancer.gov). Table 3 of the manuscript, lists the cell lines along with the number of the three cell types plated to form the mct-spheroids and media for tumor cell growth. After thawing, all PDC lines, except 997537-175-T-J1-PDC and 415267-285-R-J2-PDC, were cultured in Matrigel-coated flasks prepared with a working solution of 1X Ham's F-12 nutrient mix, without supplementation (Thermo Fisher Scientific, cat. 11765054), 100 U/mL penicillin-streptomycin (Thermo Fisher Scientific, cat. 15140122), and 2.5% Matrigel (Corning Inc., Corning, NY, cat. 354248) for the first three passages. The two PDC lines 997537-175-T-J1-PDC and 415267-285-R-J2-PDC were cultured on uncoated flasks. The 857933-349-R-J2-PDC line was cultured in 6C/Colon 1B media containing advanced DMEM/F-12 (Thermo Fisher Scientific, cat. 12634028), 10 mM HEPES (Thermo Fisher Scientific, cat. 15630080), 1X GlutaMAX supplement (Thermo Fisher Scientific, cat. 35050061), 0.1 mg/mL primocin (InvivoGen, San Diego, CA, cat. ant-pm-2), 10% defined fetal bovine serum, heat inactivated (HyClone Laboratories Inc., Logan, UT, cat. SH30070.03HI), 50% L-WRN conditioned media (ATCC, cat. CRL-3276), 1.25 mM N-Acetyl-L-cysteine (Sigma-Aldrich, cat. A9165), 10 mM nicotinamide (Sigma-Aldrich, cat. N0636), 1X B-27 supplement (Thermo Fisher Scientific, cat. 17504044), 1X N-2 supplement (Thermo Fisher Scientific, cat. […]
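Note: spheroids exposed to compounds for seven days before readout.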

Compound CC(=O)O[C@H]1C(=O)[C@@]2(C)[C@H]([C@H](OC(=O)c3ccccc3)[C@]3(O)C[C@H](OC(=O)[C@H](O)[C@@H](NC(=O)c4ccccc4)c4ccccc4)C(C)=C1C3(C)C)[C@]1(OC(C)=O)CO[C@@H]1C[C@@H]2O + Cc1cccc(N(C)C(=O)C2C(O)CCN2c2nc(C)cc(C(F)(F)F)c2C#N)c1 has an IC50 (curve of first compound, second compound 0.0316 µM) of less than 9.49 nM, an IC50 (curve of first compound, second compound 0.1 µM) of less than 9.49 nM and an IC50 (curve of first compound, second compound 0.316 µM) of less than 9.49 nM. The IC50 (curve of first compound, second compound 1 µM) was less than 9.49 nM, the IC50 (curve of first compound, second compound 3.16 µM) was less than 9.49 nM and the IC50 (curve of first compound, second compound 10 µM) was less than 9.49 nM. The viability, T/C (second compound 0.0316 µM, first compound 0.00949 µM) was 13.6%, the viability, T/C (second compound 0.0316 µM, first compound 0.03 µM) was 9.26% and the viability, T/C (second compound 0.0316 µM, first compound 0.0949 µM) was 11.7%. For the same compound, the viability, T/C (second compound 0.0316 µM, first compound 0.3 µM) was 9.48%, the viability, T/C (second compound 0.0316 µM, first compound 0.949 µM) was 11.1% and the viability, T/C (second compound 0.0316 µM, first compound 3 µM) was 12.6%. It also gave a viability, T/C (second compound 0.1 µM, first compound 0.00949 µM) of 16.4%, a viability, T/C (second compound 0.1 µM, first compound 0.03 µM) of 10.2% and a viability, T/C (second compound 0.1 µM, first compound 0.0949 µM) of 9.03%. The viability, T/C (second compound 0.1 µM, first compound 0.3 µM) was 7.34%, the viability, T/C (second compound 0.1 µM, first compound 0.949 µM) was 9.39% and the viability, T/C (second compound 0.1 µM, first compound 3 µM) was 8.97%. The viability, T/C (second compound 0.316 µM, first compound 0.00949 µM) was 11.8%, the viability, T/C (second compound 0.316 µM, first compound 0.03 µM) was 10.8% and the viability, T/C (second compound 0.316 µM, first compound 0.0949 µM) was 8.92%. For the same compound, the viability, T/C (second compound 0.316 µM, first compound 0.3 µM) was 9.41%, the viability, T/C (second compound 0.316 µM, first compound 0.949 µM) was 10.9% and the viability, T/C (second compound 0.316 µM, first compound 3 µM) was 9.92%. It also gave a viability, T/C (second compound 1 µM, first compound 0.00949 µM) of 9.84%, a viability, T/C (second compound 1 µM, first compound 0.03 µM) of 12% and a viability, T/C (second compound 1 µM, first compound 0.0949 µM) of 9.05%. For the same compound, the viability, T/C (second compound 1 µM, first compound 0.3 µM) was 9.65%, the viability, T/C (second compound 1 µM, first compound 0.949 µM) was 10.3% and the viability, T/C (second compound 1 µM, first compound 3 µM) was 10.7%. For the same compound, the viability, T/C (second compound 3.16 µM, first compound 0.00949 µM) was 11.4%, the viability, T/C (second compound 3.16 µM, first compound 0.03 µM) was 11.7% and the viability, T/C (second compound 3.16 µM, first compound 0.0949 µM) was 10.1%. It also gave a viability, T/C (second compound 3.16 µM, first compound 0.3 µM) of 10.2%, a viability, T/C (second compound 3.16 µM, first compound 0.949 µM) of 11.5% and a viability, T/C (second compound 3.16 µM, first compound 3 µM) of 10.8%. For the same compound, the viability, T/C (second compound 10 µM, first compound 0.00949 µM) was 13.1%, the viability, T/C (second compound 10 µM, first compound 0.03 µM) was 11.8% and the viability, T/C (second compound 10 µM, first compound 0.0949 µM) was 12.8%. The viability, T/C (second compound 10 µM, first compound 0.3 µM) was 10.9%, the viability, T/C (second compound 10 µM, first compound 0.949 µM) was 12% and the viability, T/C (second compound 10 µM, first compound 3 µM) was 11.9%.
For C#Cc1c(F)ccc2cc(O)cc(-c3ncc4c(N5CC6CCC(C5)N6)nc(OCC56CCCN5CC(F)C6)nc4c3F)c12 (stereo unspecified), the viability, T/C (compound 0.0316 µM) was 120% and 105% and 97.1%, the viability, T/C (compound 0.1 µM) was 106% and 100% and 107% and the viability, T/C (compound 0.316 µM) was 87.3% and 94.5% and 105%. For the same compound, the viability, T/C (compound 1 µM) was 98.4% (2×) and 94.2%, the viability, T/C (compound 3.16 µM) was 97.4% and 109% and 119% and the viability, T/C (compound 10 µM) was 104% and 98% and 121%. The IC50 (curve of compound) was greater than 10000 nM.
In the case of CNCc1ccc(-c2[nH]c3cc(F)cc4c3c2CCNC4=O)cc1, the viability, T/C (compound 0.0316 µM) is reported as 98.8% and 101% and 112%, the viability, T/C (compound 0.1 µM) is reported as 98.1% and 100% and 101% and the viability, T/C (compound 0.316 µM) is reported as 114% and 108% and 99.2%. The viability, T/C (compound 1 µM) was 115% and 103% and 99.8%, the viability, T/C (compound 3.16 µM) was 105% and 88.8% and 114% and the viability, T/C (compound 10 µM) was 114% and 137% and 126%. The IC50 (curve of compound) was greater than 10000 nM.
